# Data taken from paper PMC3454376, “Salidroside Improves Behavioral and Histological Outcomes and Reduces Apoptosis via PI3K/Akt Signaling after Experimental Traumatic Brain Injury” (PLoS ONE, 2012).
# Read-outs that look alike come from different tables or passages of the source.
# Experiments:
# Bcl-2/Bax ratio = assay: Western blot, whole cell and mitochondrial fraction; type: in vivo, mice; settings: 20 mg/kg ip 10 min after CCI
# Experimental: Three sets of experiments were performed. The first set was to investigate the protective effects of salidroside. All animals were randomized into 1 of 3 groups (sham injury, CCI + vehicle, CCI + SALD 20). Surgery/injury, behavioral testing, and tissue analyses were performed by different individuals. Behavioral testing and tissue analyses were performed by individuals blinded to the treatment group. Salidroside (Cayman Chemical, Ann Arbor, MI, USA) dissolved in normal saline (0.25 mL) or a corresponding volume of vehicle (saline) was administered intraperitoneally 10 min following injury. Testing after injury was completed as follows: 1) behavioral testing at days 1, 4, 7, 14, 21, and 28 (n = 8–10 mice/group); 2) cresyl violet staining at day 28 (n = 9 mice/group); 3) histology, determination of brain water content, and western blot analysis at day 1 or 3 (n = 5–6 mice/group). To determine the optimal dose of salidroside, a pilot study was performed using 2 different doses (20 and 50 mg/kg) administered 10 min after injury, and neurological deficits and tissue damage were evaluated as the main outcomes. […] Protein concentration was determined by Bradford reagent spectrophotometrically at A595. […] The relative intensity of protein signals was normalized to the corresponding β-actin intensity and was quantified by densitometric analysis with the use of Image J software. […]
# [1] = set-up: method as in PMID 17631426; settings: rats, cited from earlier work
smiles,measurement,setting,value
"OC[C@H]1O[C@@H](OCCc2ccc(O)cc2)[C@H](O)[C@@H](O)[C@@H]1O [SALD, salidroside]","mitochondrial Bcl-2/Bax ratio, % of the level in vehicle injured brains","Bcl-2/Bax ratio; day 1, P<0.05",150.6%
same,"whole cell Bcl-2/Bax ratio, slight increase versus vehicle",Bcl-2/Bax ratio; whole cell level,did not reach statistical significance
same,mean elimination half-life (t1/2),[1]; intravenous administration,around 0.5 h
same,mean elimination half-life (t1/2),[1]; oral administration,~1.1 h
